In assay [1] the target is Mitogen-activated protein kinase kinase kinase kinase 5 (Homo sapiens, UniProt Q9Y4K4). Put plainly: Binding affinity to wild-type human partial length MAP4K5 (M1 to P297 residues) expressed in bacterial expression system assessed as residual binding level at 100 nM by Kinomescan method relative to control.
For assay [2], the target named is T1, Dual specificity mitogen-activated protein kinase kinase 7 (Homo sapiens) (UniProt O14733).
T1 sequence (whole entry): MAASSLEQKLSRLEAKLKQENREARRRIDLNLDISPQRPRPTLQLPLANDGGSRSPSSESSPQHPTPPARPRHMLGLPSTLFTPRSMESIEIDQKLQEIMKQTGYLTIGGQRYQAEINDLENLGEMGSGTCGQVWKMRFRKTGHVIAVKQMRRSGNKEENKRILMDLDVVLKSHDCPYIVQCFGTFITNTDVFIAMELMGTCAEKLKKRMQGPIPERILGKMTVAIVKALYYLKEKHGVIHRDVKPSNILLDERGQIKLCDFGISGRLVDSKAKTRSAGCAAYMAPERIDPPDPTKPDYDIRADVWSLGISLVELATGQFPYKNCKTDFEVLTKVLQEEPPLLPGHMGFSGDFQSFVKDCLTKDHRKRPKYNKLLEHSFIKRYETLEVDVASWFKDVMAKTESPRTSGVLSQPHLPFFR
Put plainly: Binding affinity to wild-type human full length MKK7 (M1 to R419 residues) expressed in mammalian expression system assessed as residual binding level at 100 nM by Kinomescan method relative to control.

Assay [3] has as its target Mitogen-activated protein kinase kinase kinase 20 (Homo sapiens, UniProt Q9NYL2). Put plainly: Binding affinity to wild-type human partial length ZAK (M1 to L331 residues) expressed in bacterial expression system assessed as residual binding level at 100 nM by Kinomescan method relative to control.

Chain of Mitogen-activated protein kinase kinase kinase kinase 5 (Q9Y4K4 whole entry, looked up, the tested form may be a part): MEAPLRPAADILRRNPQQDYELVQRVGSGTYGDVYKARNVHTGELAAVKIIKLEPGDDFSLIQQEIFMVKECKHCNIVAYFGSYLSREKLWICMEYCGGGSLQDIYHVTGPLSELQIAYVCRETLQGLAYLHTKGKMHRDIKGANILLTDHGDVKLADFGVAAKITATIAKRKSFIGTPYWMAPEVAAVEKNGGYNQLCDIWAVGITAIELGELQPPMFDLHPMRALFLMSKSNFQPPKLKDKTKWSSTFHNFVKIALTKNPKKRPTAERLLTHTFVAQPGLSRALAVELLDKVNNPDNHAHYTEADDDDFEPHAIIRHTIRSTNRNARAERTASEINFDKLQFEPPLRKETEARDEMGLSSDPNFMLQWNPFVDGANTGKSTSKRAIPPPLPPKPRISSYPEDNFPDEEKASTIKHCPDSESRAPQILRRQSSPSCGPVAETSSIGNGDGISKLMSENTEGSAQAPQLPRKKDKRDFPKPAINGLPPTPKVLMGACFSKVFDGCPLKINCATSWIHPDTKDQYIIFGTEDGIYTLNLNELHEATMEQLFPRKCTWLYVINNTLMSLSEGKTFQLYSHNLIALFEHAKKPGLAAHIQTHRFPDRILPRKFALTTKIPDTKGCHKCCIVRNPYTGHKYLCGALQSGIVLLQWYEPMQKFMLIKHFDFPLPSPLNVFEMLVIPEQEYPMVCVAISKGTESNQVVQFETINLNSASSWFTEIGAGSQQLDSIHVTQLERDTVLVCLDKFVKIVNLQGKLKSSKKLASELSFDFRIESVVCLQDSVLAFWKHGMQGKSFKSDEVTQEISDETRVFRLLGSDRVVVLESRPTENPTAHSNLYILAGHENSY
Chain of Mitogen-activated protein kinase kinase kinase 20 (Q9NYL2 2-800 limits assumed): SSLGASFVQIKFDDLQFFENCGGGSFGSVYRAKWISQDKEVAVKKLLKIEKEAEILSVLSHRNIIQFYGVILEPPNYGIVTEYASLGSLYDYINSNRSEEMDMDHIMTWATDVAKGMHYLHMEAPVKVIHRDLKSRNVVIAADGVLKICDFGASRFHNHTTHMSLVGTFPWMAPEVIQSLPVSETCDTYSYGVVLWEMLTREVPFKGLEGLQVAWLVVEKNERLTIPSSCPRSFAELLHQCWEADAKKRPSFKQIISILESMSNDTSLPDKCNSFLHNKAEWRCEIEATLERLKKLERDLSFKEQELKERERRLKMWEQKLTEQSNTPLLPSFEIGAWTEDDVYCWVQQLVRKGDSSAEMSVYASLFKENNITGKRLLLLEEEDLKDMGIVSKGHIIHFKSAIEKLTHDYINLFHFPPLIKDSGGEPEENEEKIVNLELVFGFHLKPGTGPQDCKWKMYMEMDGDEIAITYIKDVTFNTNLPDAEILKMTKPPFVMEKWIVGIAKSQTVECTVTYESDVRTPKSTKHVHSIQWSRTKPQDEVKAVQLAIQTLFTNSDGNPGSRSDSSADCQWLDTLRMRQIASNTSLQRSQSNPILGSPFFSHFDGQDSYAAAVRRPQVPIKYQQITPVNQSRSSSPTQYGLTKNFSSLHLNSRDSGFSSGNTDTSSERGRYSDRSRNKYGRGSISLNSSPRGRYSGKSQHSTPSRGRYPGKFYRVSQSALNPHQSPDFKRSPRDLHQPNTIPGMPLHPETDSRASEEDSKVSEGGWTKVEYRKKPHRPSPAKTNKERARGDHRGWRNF

Consider `CCCS(=O)(=O)Nc1ccc(F)c(C(=O)c2n[nH]c3ncc(-c4ccc(-c5nnn[nH]5)cc4)cc23)c1F`, for which the results for the Activity in assay [1], in assay [2] and in assay [3] were 81%, 64% and 20%, respectively.

On to `CCCS(=O)(=O)Nc1ccc(F)c(C(=O)c2n[nH]c3ncc(-c4ccccc4OC)cc23)c1F`, for which the Activity in assay [1] came out at 34%; in assay [2] it was 100%; in assay [3] it was 36%.

Regarding `CCCS(=O)(=O)Nc1ccc(F)c(C(=O)c2n[nH]c3ncc(-c4cccc(F)c4)cc23)c1F`, the Activity in assay [1] was 65%; in assay [2] it was 97%; in assay [3] it was 12%.

For the molecule `CCCS(=O)(=O)Nc1ccc(F)c(C(=O)c2n[nH]c3ncc(-c4ccccc4O)cc23)c1F`, the results for the Activity in assay [1], in assay [2] and in assay [3] were 39%, 100% and 9.7%, respectively.

`CCCS(=O)(=O)Nc1ccc(F)c(C(=O)c2n[nH]c3ncc(-c4ccc(C)cc4)cc23)c1F`: the figures for the Activity in assay [1], in assay [2] and in assay [3] were 25%, 100% and 5.9%, respectively.

Take `CCCS(=O)(=O)Nc1ccc(F)c(C(=O)c2n[nH]c3ncc(-c4ccc(OC)cc4Cl)cc23)c1F`: the values for the Activity in assay [1], in assay [2] and in assay [3] were 53%, 100% and 74%, respectively.

Turning to `CCCS(=O)(=O)Nc1ccc(F)c(C(=O)c2n[nH]c3ncc(-c4ccc(C)c(C)c4)cc23)c1F`, the Activity was 20% in assay [1], 100% in assay [2] and 24% in assay [3].

In the case of `CCCS(=O)(=O)Nc1ccc(F)c(C(=O)c2n[nH]c3ncc(-c4ccccc4Cl)cc23)c1F`, the results for the Activity in assay [1], in assay [2] and in assay [3] were 96%, 100% and 64%, respectively.

In the case of `CS(=O)(=O)Nc1ccc(F)c(C(=O)c2n[nH]c3ncc(-c4ccc(S(N)(=O)=O)cc4)cc23)c1F`, the Activity in assay [1] was 99%; in assay [2], 99%; in assay [3], 100%.

Turning to `CCCS(=O)(=O)Nc1ccc(F)c(C(=O)c2n[nH]c3ncc(-c4ccc(S(=O)(=O)NC)cc4)cc23)c1F`, the Activity was determined as 17% in assay [1], 100% in assay [2] and 33% in assay [3].

Turning to `CCCS(=O)(=O)Nc1ccc(F)c(C(=O)c2n[nH]c3ncc(-c4ccc(Cl)c(Cl)c4)cc23)c1F`, the Activity in assay [1] was 100%; in assay [2] it was 100%; in assay [3], 85%.

For `CCCS(=O)(=O)Nc1ccc(F)c(C(=O)c2n[nH]c3ncc(-c4ccc(C(C)(C)C)cc4)cc23)c1F`, the Activity in assay [1] turned out to be 97%; in assay [2], 100%; in assay [3], 77%.

With `CCCS(=O)(=O)Nc1ccc(F)c(C(=O)c2n[nH]c3ncc(-c4ccc(S(N)(=O)=O)cc4F)cc23)c1F`, the values for the Activity in assay [1], in assay [2] and in assay [3] were 77%, 100% and 100%, respectively.

On to `CCCS(=O)(=O)Nc1ccc(F)c(C(=O)c2n[nH]c3ncc(-c4ccc(C(=O)O)cc4)cc23)c1F`, for which the figures for the Activity in assay [1], in assay [2] and in assay [3] were 75%, 27% and 7.5%, respectively.

Consider `CCCS(=O)(=O)Nc1ccc(F)c(C(=O)c2n[nH]c3ncc(-c4cccc(C(F)(F)F)c4)cc23)c1F`, for which the Activity was determined as 98% in assay [1], 100% in assay [2] and 44% in assay [3].

Consider `CCCS(=O)(=O)Nc1ccc(F)c(C(=O)c2n[nH]c3ncc(-c4ccccc4)cc23)c1F`, for which the Activity in assay [1] stood at 24%; in assay [2] it was 100%; in assay [3], 1.9%.

As to `CCCS(=O)(=O)Nc1ccc(F)c(C(=O)c2n[nH]c3ncc(-c4ccc(F)cc4)cc23)c1F`, the Activity in assay [1] came to 59%; in assay [2], 100%; in assay [3] it was 4.8%.

For the molecule `CCCS(=O)(=O)Nc1ccc(F)c(C(=O)c2n[nH]c3ncc(-c4ccc([N+](=O)[O-])cc4)cc23)c1F`, the Activity was determined as 61% in assay [1], 100% in assay [2] and 23% in assay [3].

Consider `CCCS(=O)(=O)Nc1ccc(F)c(C(=O)c2n[nH]c3ncc(-c4ccccc4F)cc23)c1F`, for which the Activity in assay [1] was found to be 59%; in assay [2], 83%; in assay [3], 32%.

As to `CCCS(=O)(=O)Nc1ccc(F)c(C(=O)c2n[nH]c3ncc(-c4ccc(N(C)C)cc4)cc23)c1F`, the Activity in assay [1] worked out at 31%; in assay [2], 100%; in assay [3] it was 2.2%.

With `CCCS(=O)(=O)Nc1ccc(F)c(C(=O)c2n[nH]c3ncc(-c4cccc(N(C)C)c4)cc23)c1F`, the Activity was 11% in assay [1], 100% in assay [2] and 9.7% in assay [3].

For `CCCCS(=O)(=O)Nc1ccc(F)c(C(=O)c2n[nH]c3ncc(-c4ccc(S(N)(=O)=O)cc4)cc23)c1F`, the Activity in assay [1], in assay [2] and in assay [3] was 100% in each case.

Regarding `CCCS(=O)(=O)Nc1ccc(F)c(C(=O)c2n[nH]c3ncc(-c4ccc(Cl)c(C(F)(F)F)c4)cc23)c1F`, the Activity in assay [1] stood at 16%; in assay [2] it was 100%; in assay [3], 20%.

Consider `CCCS(=O)(=O)Nc1ccc(F)c(C(=O)c2n[nH]c3ncc(-c4cccc(Cl)c4)cc23)c1F`, for which the Activity stood at 69% in assay [1], 100% in assay [2] and 16% in assay [3].

In the case of `CCCS(=O)(=O)Nc1ccc(F)c(C(=O)c2n[nH]c3ncc(-c4cc(Cl)cc(Cl)c4)cc23)c1F`, the Activity was 99% in assay [1], 100% in assay [2] and 66% in assay [3].

As to `CCCS(=O)(=O)Nc1ccc(F)c(C(=O)c2n[nH]c3ncc(-c4ccc(Cl)cc4Cl)cc23)c1F`, the figures for the Activity in assay [1], in assay [2] and in assay [3] were 100%, 96% and 99%, respectively.

For the molecule `CCCS(=O)(=O)Nc1ccc(F)c(C(=O)c2n[nH]c3ncc(-c4ccc(NS(C)(=O)=O)cc4)cc23)c1F`, the Activity amounted to 1.1% in assay [1], 100% in assay [2] and 4.3% in assay [3].

As for `CCCS(=O)(=O)Nc1ccc(F)c(C(=O)c2n[nH]c3ncc(-c4cccc([N+](=O)[O-])c4)cc23)c1F`, the figures for the Activity in assay [1], in assay [2] and in assay [3] were 93%, 95% and 52%, respectively.

With `CCCS(=O)(=O)Nc1ccc(F)c(C(=O)c2n[nH]c3ncc(-c4ccc(OC)cc4)cc23)c1F`, the Activity in assay [1] amounted to 28%; in assay [2] it was 100%; in assay [3], 1.9%.

Take `CCCS(=O)(=O)Nc1ccc(F)c(C(=O)c2n[nH]c3ncc(-c4ccc(N)cc4)cc23)c1F`: the Activity in assay [1] amounted to 1.3%; in assay [2], 93%; in assay [3], 2.7%.

Consider `CCCS(=O)(=O)Nc1ccc(F)c(C(=O)c2n[nH]c3ncc(-c4ccc(S(C)(=O)=O)cc4)cc23)c1F`, for which the Activity in assay [1] is 14%; in assay [2] it was 100%; in assay [3], 21%.

For the molecule `CCCS(=O)(=O)Nc1ccc(F)c(C(=O)c2n[nH]c3ncc(-c4cccc(OC)c4)cc23)c1F`, the Activity amounted to 24% in assay [1], 100% in assay [2] and 23% in assay [3].

Turning to `CCCS(=O)(=O)Nc1ccc(F)c(C(=O)c2n[nH]c3ncc(-c4ccc(C(N)=O)cc4)cc23)c1F`, the Activity was 10% in assay [1], 99% in assay [2] and 8.1% in assay [3].

On to `CCCS(=O)(=O)Nc1ccc(F)c(C(=O)c2n[nH]c3ncc(-c4ccc(O)cc4)cc23)c1F`, for which the values for the Activity in assay [1], in assay [2] and in assay [3] were 9.4%, 87% and 0%, respectively.

As for `CCCS(=O)(=O)Nc1ccc(F)c(C(=O)c2n[nH]c3ncc(-c4ccc(S(N)(=O)=O)cc4Cl)cc23)c1F`, the Activity in assay [2] and in assay [3] was 100% in each case.

On to `CCCS(=O)(=O)Nc1ccc(F)c(C(=O)c2n[nH]c3ncc(-c4ccc(C(F)(F)F)cc4)cc23)c1F`, for which the Activity in assay [1] turned out to be 76%; in assay [2] it was 100%; in assay [3], 75%.

As to `CCCS(=O)(=O)Nc1ccc(F)c(C(=O)c2n[nH]c3ncc(-c4ccc(C(C)C)cc4)cc23)c1F`, the Activity in assay [1] amounted to 89%; in assay [2] it was 98%; in assay [3], 92%.

Regarding `CCCS(=O)(=O)Nc1ccc(F)c(C(=O)c2n[nH]c3ncc(-c4ccc(S(=O)(=O)NCC)cc4)cc23)c1F`, the Activity in assay [1] amounted to 26%; in assay [2], 100%; in assay [3] it was 32%.

Turning to `CCCS(=O)(=O)Nc1ccc(F)c(C(=O)c2n[nH]c3ncc(-c4ccccc4C)cc23)c1F`, the figures for the Activity in assay [1], in assay [2] and in assay [3] were 67%, 100% and 41%, respectively.

For `CCCS(=O)(=O)Nc1ccc(F)c(C(=O)c2n[nH]c3ncc(-c4cccc(C)c4)cc23)c1F`, the Activity in assay [1] amounted to 18%; in assay [2] it was 100%; in assay [3], 5.5%.

As for `CCCS(=O)(=O)Nc1ccc(F)c(C(=O)c2n[nH]c3ncc(-c4ccc(S(N)(=O)=O)cc4C)cc23)c1F`, the Activity in assay [2] was 100%; in assay [3], 94%.

In the case of `CCCS(=O)(=O)Nc1ccc(F)c(C(=O)c2n[nH]c3ncc(-c4cccc(O)c4)cc23)c1F`, the Activity in assay [1] turned out to be 8%; in assay [2], 100%; in assay [3], 0.95%.
